EC50 data for 19 compounds are collected here from patent US12617795B2, “Substituted 6,7-dihydro-5H-pyrrolo[3,4-d]pyrimidines, 5,7-dihydrofuro[3,4-d]pyrimidines, and pyrido[2,3-d]pyrimidines as KCC2 modulators” (Astrazeneca AB, priority 2020, dated 2026).

The target of the assay is T1, KCC2 (Homo sapiens, UniProt Q9H2X9).
T1 construct: expressed in transfected cells; host or cells: HEK293 cells electroporated (Maxcyte STX) with the pcDNA3.1 KCC2 plasmid
T1 sequence (Q9H2X9 1-1139): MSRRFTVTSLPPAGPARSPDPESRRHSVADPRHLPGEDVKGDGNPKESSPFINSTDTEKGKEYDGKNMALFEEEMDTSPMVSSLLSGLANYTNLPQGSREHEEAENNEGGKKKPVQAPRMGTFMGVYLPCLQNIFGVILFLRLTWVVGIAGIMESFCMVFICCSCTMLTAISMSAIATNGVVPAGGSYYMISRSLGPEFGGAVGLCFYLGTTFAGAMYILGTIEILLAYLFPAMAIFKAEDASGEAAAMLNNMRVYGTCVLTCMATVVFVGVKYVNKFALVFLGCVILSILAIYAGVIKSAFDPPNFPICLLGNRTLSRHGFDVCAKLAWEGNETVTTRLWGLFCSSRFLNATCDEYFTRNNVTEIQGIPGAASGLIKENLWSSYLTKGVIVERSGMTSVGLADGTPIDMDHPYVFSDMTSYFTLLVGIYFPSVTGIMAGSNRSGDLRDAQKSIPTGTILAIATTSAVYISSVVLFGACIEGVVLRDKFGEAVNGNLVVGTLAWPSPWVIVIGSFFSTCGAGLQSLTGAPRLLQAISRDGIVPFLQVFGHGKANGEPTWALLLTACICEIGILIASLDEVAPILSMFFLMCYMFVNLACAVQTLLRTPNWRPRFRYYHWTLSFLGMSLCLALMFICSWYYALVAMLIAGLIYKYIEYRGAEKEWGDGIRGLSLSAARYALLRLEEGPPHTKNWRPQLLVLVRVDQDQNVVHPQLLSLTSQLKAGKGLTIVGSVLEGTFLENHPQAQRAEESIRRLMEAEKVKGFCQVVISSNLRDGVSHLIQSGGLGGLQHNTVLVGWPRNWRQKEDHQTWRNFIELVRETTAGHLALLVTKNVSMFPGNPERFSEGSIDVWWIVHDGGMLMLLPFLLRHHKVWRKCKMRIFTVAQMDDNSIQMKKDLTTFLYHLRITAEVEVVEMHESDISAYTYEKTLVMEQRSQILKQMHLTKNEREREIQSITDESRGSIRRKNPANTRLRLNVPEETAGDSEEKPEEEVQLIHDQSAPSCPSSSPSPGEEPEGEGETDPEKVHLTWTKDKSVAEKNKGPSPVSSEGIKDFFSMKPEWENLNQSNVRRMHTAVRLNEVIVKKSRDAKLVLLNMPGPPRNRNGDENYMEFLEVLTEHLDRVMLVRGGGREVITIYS
Kind of assay: KCC2 thallium transport FLIPR-based assay (Tl+ influx in HEK293 cells expressing KCC2). It is filed as cell-based. To be noted: 90 min compound incubation at RT, thallium flux at 120 s used to determine EC50. The method, then:
A thallium transport FLIPR-based assay was used to measure the ability of compounds to activate KCC2. KCC2 activity is assessed by measuring KCC2-dependent Tl^+ influx in a KCC2-expressing cell. The assay protocol was based on those described by Delpire et al (Proc Natl Acad Sci USA. 2009 Mar. 31; 106(13): 5383-5388) and Zhang et al (Journal of Biomolecular Screening 15(2): 2010).
KCC2 was synthesised and codon optimised by GeneArt based on the Uniprot sequence Q9H2X9. The final sequence was subcloned into pcDNA3.1.
HEK293 cells were grown in 10 layer cell stacks at 37° C., 5% CO2, in DMEM, 10% fetal calf serum and 2 mM Glutamine. The cells were detached by removing the media and washing the cell stack with 100 ml of PBS. The PBS was removed and 100 ml of 1× TrypLE was added and the cell stack returned to 37° C. for 5 min. The detached cells were then counted in a Vi Cell counter and spun for 10 min at 1250 rpm in a Sorval Legend centrifuge. The cells were diluted down in Maxcyte electroporation buffer at 4× the final concentration and spun as before. The cell pellet was resuspended at 1×10^8/cells per ml and electroporated in a Maxcyte Cl 2.2 bag on a Maxcyte STX machine via the HEK293 programme with 200 ug/ml of plasmid DNA. The cells were then allowed to recover for 30 min before adding to 500 ml of PBS and then counted again on the Vi Cell. The cells were then frozen down in planer controlled rate freeze in 90% complete media, 10% DMSO.
All reagents were dispensed using a Mulitdrop Combi unless stated otherwise. All FluXOR Invitrogen propriety buffer compositions are mentioned in tables below.
HEK293 KCC2 cells were harvested at a density of 3.33×10^5 cells/mL in complete media (DMEM, Sigma, D6546, 10% fetal calf serum and 1% Glutamax) and 30 μL per well seeded into 384-well PDL coated black-clear plates (Corning, 354663). Leave cells at RT for 20 mins to settle before incubating for 48 h at 37° C., 5% CO2. Following incubation, perform three wash steps in HBSS (Sigma, H6648) using a Biotek cell washer with the final aspiration leaving 20 μL HBSS residual volume in each well. A further 20 μL per well of thallium loading dye is then added (1 h, RT, protect from light). 5 μL of test compounds (100 μM top concentration, 1:2 dilutions, 12 point curve) were added using the FLIPR TETRA and incubated at RT for 90 min in the dark. Following compound incubation, the thallium flux response is read on FLIPR TETRA (ex. 515-575 nm) which is initiated by FLIRR TETRA dispensing 5 μL stimulus buffer into each well. Recordings are measured every 1 second for 120 seconds. Thallium flux at 120 s used to determine EC50.
Compound buffer: Assay buffer with 1 μL of bumetanide per 10 ml.

As for `CC(C)N1Cc2c(Nc3ccc(C4CCCCC4)cc3)nc(N3CCOC[C@H]3C(=O)O)nc2C1=O` [Example 38, (3S)-4-{4-[(4-cyclohexylphenyl)amino]-7-oxo-6-(propan-2-yl)-6,7-dihydro-5H-pyrrolo[3,4-d]pyrimidin-2-yl}morpholine-3-carboxylic acid], the response was half-maximal at 9.34 µM (EC50).
`CC(C)N1Cc2c(Nc3ccc(Oc4ccc(F)cc4)cc3)nc(N3CCO[C@H](C)C3)nc2C1=O` [Example 51, (R)-4-((4-(4-fluorophenoxy)phenyl)amino)-6-isopropyl-2-(2-methylmorpholino)-5,6-dihydro-7H-pyrrolo[3,4-d]pyrimidin-7-one]: the concentration giving a half-maximal response (EC50) (commonly the concentration that produces a half-maximal response) was 0.973 µM.
In turn, `C#CCN1Cc2c(Nc3ccc(C(C)C)cc3)nc(N3CCOCC3)nc2C1=O` [Example 76, 2-(morpholin-4-yl)-4-{[4-(propan-2-yl)phenyl]amino}-6-(prop-2-yn-1-yl)-5,6-dihydro-7H-pyrrolo[3,4-d]pyrimidin-7-one] yielded an EC50 of 6.89 µM.
In turn, `CC(=O)NCCC1CN(c2nc(Nc3ccc(C4CCCCC4)cc3)c3c(n2)C(=O)N(C(C)C)C3)CCO1` (stereo not shown) [Example 39, N-[2-(4-{4-[(4-cyclohexylphenyl)amino]-7-oxo-6-(propan-2-yl)-6,7-dihydro-5H-pyrrolo[3,4-d]pyrimidin-2-yl}morpholin-2-yl)ethyl]acetamide] displayed an EC50 of 9.9 µM.
`CC(C)N1Cc2c(Nc3ccc(C4CCCCC4)cc3)nc(-c3cncs3)nc2C1=O` [Example 49, 4-[(4-cyclohexylphenyl)amino]-6-(propan-2-yl)-2-(1,3-thiazol-5-yl)-5,6-dihydro-7H-pyrrolo[3,4-d]pyrimidin-7-one] came in with a 50% effective concentration (EC50) of 6.3 µM.
In turn, `Cc1cc(Nc2nc(N3CCOCC3)nc3c2CN(C(C)C)C3=O)ccc1-c1ccccc1` [Example 88, 4-[(2-methyl[1,1′-biphenyl]-4-yl)amino]-2-(morpholin-4-yl)-6-(propan-2-yl)-5,6-dihydro-7H-pyrrolo[3,4-d]pyrimidin-7-one] returned a half-maximal effective concentration (EC50) of 3.52 µM.
`C[C@@H]1CN(c2nc(Nc3ccc(C4CCCCC4)cc3)c3cc(Br)cnc3n2)CCO1` [Example 97, 6-bromo-N-(4-cyclohexylphenyl)-2-[(2R)-2-methylmorpholin-4-yl]pyrido[2,3-d]pyrimidin-4-amine] returned a concentration giving a half-maximal response (EC50) of 1.35 µM.
Take `CCC(C)c1ccc(Nc2nc(N3CCO[C@H](C)C3)nc3c2CN(C(C)C)C3=O)cc1` (stereo partly drawn) [Example 56, 4-{[4-(butan-2-yl)phenyl]amino}-2-[(2R)-2-methylmorpholin-4-yl]-6-(propan-2-yl)-5,6-dihydro-7H-pyrrolo[3,4-d]pyrimidin-7-one]: the concentration giving a half-maximal response (EC50) was found to be 3.28 µM.
Next, `CCCCCc1ccc(Nc2nc(N3CCO[C@H](C)C3)nc3c2CN(C(C)C)C3=O)cc1` [Example 55, 2-[(2R)-2-methylmorpholin-4-yl]-4-[(4-pentylphenyl)amino]-6-(propan-2-yl)-5,6-dihydro-7H-pyrrolo[3,4-d]pyrimidin-7-one]: 2.3 µM; `CC(C)c1ccc(Nc2nc(N3C[C@H](C)O[C@@H](C)C3)nc3c2CN(C(C)C)C3=O)cc1` [Example 8, 2-[(2S,6S)-2,6-dimethylmorpholin-4-yl]-6-(propan-2-yl)-4-{[4-(propan-2-yl)phenyl]amino}-5,6-dihydro-7H-pyrrolo[3,4-d]pyrimidin-7-one]: 5.43 µM.
In turn, `CC(C)N1Cc2c(Nc3ccc(C4CCCCC4)cc3)nc(N3CCOC(C4CC4)C3)nc2C1=O` (single isomer, unassigned) [Example 14, 4-[(4-cyclohexylphenyl)amino]-2-(2-cyclopropylmorpholin-4-yl)-6-(propan-2-yl)-5,6-dihydro-7H-pyrrolo[3,4-d]pyrimidin-7-one] showed an EC50 of 0.707 µM. Compared with the last compound, the EC50 is about 7.7-fold lower.
The compound `CCc1cnc2nc(N3CCO[C@H](C)C3)nc(Nc3ccc(C4CCCCC4)cc3)c2c1` [Example 100, (R)—N-(4-cyclohexylphenyl)-6-ethyl-2-(2-methylmorpholino) pyrido[2,3-d]pyrimidin-4-amine] returned a half-maximal effective concentration (EC50) of 6.3 µM.
On to `C#CCCC1(CCOc2ccc(-c3ccc(Nc4nc(N5CCOCC5)nc5c4CN(C(C)C)C5=O)cc3)cc2)N=N1` [Example 70, 4-[(4′-{2-[3-(but-3-yn-1-yl)-3H-diaziren-3-yl]ethoxy}[1,1′-biphenyl]-4-yl)amino]-2-(morpholin-4-yl)-6-(propan-2-yl)-5,6-dihydro-7H-pyrrolo[3,4-d]pyrimidin-7-one], for which the EC50 was 1.83 µM.
Regarding `C[C@@H]1CN(c2nc(Nc3ccc(C4CCCCC4)cc3)c3c(n2)C(=O)N(CCN(C)C)C3)CCO1` [Example 73, 4-[(4-cyclohexylphenyl)amino]-6-[2-(dimethylamino)ethyl]-2-[(2R)-2-methylmorpholin-4-yl]-5,6-dihydro-7H-pyrrolo[3,4-d]pyrimidin-7-one], the midpoint of the response, the EC50, lay at 2.73 µM.
On to `CCOCCN(C)c1nc(Nc2ccc(C3CCCCC3)cc2)c2c(n1)C(=O)N(C(C)C)C2` [Example 20, 4-[(4-cyclohexylphenyl)amino]-2-[(2-ethoxyethyl)(methyl)amino]-6-(propan-2-yl)-5,6-dihydro-7H-pyrrolo[3,4-d]pyrimidin-7-one], for which the concentration giving a half-maximal response (EC50) was 2.35 µM.
Next, `C[C@@H]1CN(c2nc(Nc3ccc(C4CCC4)cc3)c3c(n2)C(=O)N(CCCN(C)C)C3)CCO1` [Example 74, 4-[(4-cyclobulylphenyl)amino]-6-[3-(dimethylamino)propyl]-2-[(2R)-2-methylmorpholin-4-yl]-5,6-dihydro-7H-pyrrolo[3,4-d]pyrimidin-7-one]: 3.7 µM; `C[C@@H]1CN(c2nc(Nc3ccc(C4CCCCC4)cc3)c3ccc[n+]([O-])c3n2)CCO1` [Example 99, (R)-4-((4-cyclohexylphenyl)amino)-2-(2-methylmorpholino)pyrido [2,3-d]pyrimidine 8-oxide]: 3.79 µM; `CC(C)N1Cc2c(Nc3ccc(-c4ccsc4)cc3)nc(N3CCOCC3)nc2C1=O` [Example 114, 2-(morpholin-4-yl)-6-(propan-2-yl)-4-{[4-(thiophen-3-yl)phenyl]amino}-5,6-dihydro-7H-pyrrolo[3,4-d]pyrimidin-7-one]: 7.3 µM.
For `C[C@@H]1CN(c2nc3c(c(Nc4ccc(-c5ccc(OCCCCCC(F)(F)F)cc5)cc4)n2)COC3)CCO1` [Example 94, 2-[(2R)-2-methylmorpholin-4-yl]-N-{4′-[(6,6,6-trifluorohexyl)oxy][1,1′-biphenyl]-4-yl}-5,7-dihydrofuro[3,4-d]pyrimidin-4-amine], the EC50 came to 1.3 µM.
